Results on 28 molecules are retold here after US9708334B2, “Substituted 2,4,5,6-tetrahydropyrrolo[3,4-c]pyrazole and 4,5,6,7-tetrahydro-2H-pyrazolo[4,3-c]pyridine compounds as GlyT1 inhibitors” (DART NEUROSCIENCE (CAYMAN) LTD., priority 2014, dated 2017).

For this experiment, the target named is T1, GlyT1 (Homo sapiens, UniProt P48067).
T1 construct: expressed in transfected cells
T1 sequence (P48067 1-706): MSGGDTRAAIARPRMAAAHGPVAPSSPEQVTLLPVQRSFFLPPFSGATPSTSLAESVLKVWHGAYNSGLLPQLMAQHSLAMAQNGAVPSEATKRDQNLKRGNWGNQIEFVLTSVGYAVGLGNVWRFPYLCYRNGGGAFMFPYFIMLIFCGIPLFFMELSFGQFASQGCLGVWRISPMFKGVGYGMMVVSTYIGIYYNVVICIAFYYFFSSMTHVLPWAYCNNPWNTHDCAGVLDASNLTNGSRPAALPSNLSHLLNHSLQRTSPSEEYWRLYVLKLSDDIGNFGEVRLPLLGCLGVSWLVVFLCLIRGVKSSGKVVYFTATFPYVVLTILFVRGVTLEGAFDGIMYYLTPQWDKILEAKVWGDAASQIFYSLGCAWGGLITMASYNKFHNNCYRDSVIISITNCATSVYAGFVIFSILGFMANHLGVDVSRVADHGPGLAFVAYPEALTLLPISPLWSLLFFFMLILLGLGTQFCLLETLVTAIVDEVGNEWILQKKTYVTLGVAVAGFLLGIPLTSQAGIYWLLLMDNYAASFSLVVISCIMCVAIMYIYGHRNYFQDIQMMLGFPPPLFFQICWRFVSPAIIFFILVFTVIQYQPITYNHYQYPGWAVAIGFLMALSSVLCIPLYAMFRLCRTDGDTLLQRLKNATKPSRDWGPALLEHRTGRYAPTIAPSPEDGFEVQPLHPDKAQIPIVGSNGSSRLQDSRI
Kind of experiment: Glycine Transporter 1 (GlyT1) uptake assay, scintillation proximity assay of [14C]-glycine uptake. The experiment is classed as cell-based. The note with it: SPA, four parameter logistic fit, read-out: GlyT1 (pIC50) (converted). Put shortly:
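IC50 values derive from four-parameter logistic curves fitted to dose-response data. Uptake of [14C]-glycine measured in scintillation proximity format.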
For the molecule `CC1(COc2ccc(C#N)c(Cl)c2C(=O)N2CCc3nn(-c4ccccc4)cc3C2)CC1` [Example 507, 2-Chloro-4-[(1-methylcyclopropyl)methoxy]-3-{2-phenyl-2H 4H 5H 6H 7H-pyrazolo[4,3-c]pyridine-5-carbonyl}benzonitrile], the IC50 is 100 to 1000 nM.

As to `CC1(COc2ccc(C#N)c(Cl)c2C(=O)N2CCc3nn(-c4ccc(F)cc4)cc3C2)CC1` [Example 508, 2-Chloro-3-[2-(4-fluorophenyl)-2H 4H 5H 6H 7H-pyrazolo[4,3-c]pyridine-5-carbonyl]-4-[(1-methylcyclopropyl)methoxy]benzonitrile], the IC50 is 100 to 1000 nM.

Regarding `N#Cc1ccc(OCC2(C(F)(F)F)CC2)c(C(=O)N2CCc3nn(-c4ccc(F)cc4)cc3C2)c1Cl` [Example 509, 2-Chloro-3-[2-(4-fluorophenyl)-2H 4H 5H 6H 7H-pyrazolo[4,3-c]pyridine-5-carbonyl]-4-{[1-(trifluoromethyl)cyclopropyl]methoxy}benzonitrile], the IC50 was 100 to 1000 nM.

Consider `COc1c(C#N)ccc(N2CCC(F)(F)CC2)c1C(=O)N1Cc2cn(-c3ccc(F)cc3)nc2C1` [Example 510, 4-(4 4-Difluoropiperidin-1-yl)-3-[2-(4-fluorophenyl)-2H 4H 5H 6H-pyrrolo[3,4-c]pyrazole-5-carbonyl]-2-methoxybenzonitrile], for which the IC50 is less than 100 nM.

`COc1c(C#N)ccc(OCC(C)(C)C)c1C(=O)N1Cc2cn(-c3ccc(F)cc3)nc2C1` [Example 511]: the IC50 is less than 100 nM.

Regarding `COc1c(C#N)ccc(OCC2(C)CC2)c1C(=O)N1Cc2cn(-c3ccc(F)cc3)nc2C1` [Example 512, 3-[2-(4-Fluorophenyl)-2H 4H 5H 6H-pyrrolo[3,4-c]pyrazole-5-carbonyl]-2-methoxy-4-[(1-methylcyclopropyl)methoxy]benzonitrile], the IC50 is less than 100 nM.

Consider `COc1c(C#N)ccc(OC2CCCC2)c1C(=O)N1Cc2cn(-c3ccc(F)cc3)nc2C1` [Example 513, 4-(Cyclopentyloxy)-3-[2-(4-fluorophenyl)-2H 4H 5H 6H-pyrrolo[3,4-c]pyrazole-5-carbonyl]-2-methoxybenzonitrile], for which the IC50 is less than 100 nM.

With `COc1c(C#N)ccc(N2CCC(F)(F)C2)c1C(=O)N1Cc2cn(-c3ccc(F)cc3)nc2C1` [Example 514, 4-(3 3-Difluoropyrrolidin-1-yl)-3-[2-(4-fluorophenyl)-2H 4H 5H 6H-pyrrolo[3,4-c]pyrazole-5-carbonyl]-2-methoxybenzonitrile], the IC50 is less than 100 nM.

Regarding `COc1c(C#N)ccc(OC(C)C)c1C(=O)N1Cc2cn(-c3ccc(F)cc3)nc2C1` [Example 515, 3-[2-(4-Fluorophenyl)-2H 4H 5H 6H-pyrrolo[3,4-c]pyrazole-5-carbonyl]-2-methoxy-4-(propan-2-yloxy)benzonitrile], the IC50 was less than 100 nM.

For the molecule `COc1c(C#N)ccc(OC(C)(C)C(F)(F)F)c1C(=O)N1Cc2cn(-c3ccc(F)cc3)nc2C1` [Example 516, 3-[2-(4-Fluorophenyl)-2H 4H 5H 6H-pyrrolo[3,4-c]pyrazole-5-carbonyl]-2-methoxy-4-[(1 1 1-trifluoro-2-methylpropan-2-yl)oxy]benzonitrile], the IC50 was less than 100 nM.

As to `COc1c(C#N)ccc(OC(C)CF)c1C(=O)N1Cc2cn(-c3ccc(F)cc3)nc2C1` (stereo not shown) [Example 517, 3-[2-(4-Fluorophenyl)-2H 4H 5H 6H-pyrrolo[3,4-c]pyrazole-5-carbonyl]-4-[(1-fluoropropan-2-yl)oxy]-2-methoxybenzonitrile], the IC50 is less than 100 nM.

Take `CCC(CC)Oc1ccc(C#N)c(OC)c1C(=O)N1Cc2cn(-c3ccc(F)cc3)nc2C1` [Example 518, 3-[2-(4-Fluorophenyl)-2H 4H 5H 6H-pyrrolo[3,4-c]pyrazole-5-carbonyl]-2-methoxy-4-(pentan-3-yloxy)benzonitrile]: the IC50 was less than 100 nM.

Take `COc1c(C#N)ccc(OC2COC2)c1C(=O)N1Cc2cn(-c3ccc(F)cc3)nc2C1` [Example 519, 3-[2-(4-Fluorophenyl)-2H 4H 5H 6H-pyrrolo[3,4-c]pyrazole-5-carbonyl]-2-methoxy-4-(oxetan-3-yloxy)benzonitrile]: the IC50 was less than 100 nM.

For the molecule `COc1c(C#N)ccc(OCC(F)F)c1C(=O)N1Cc2cn(-c3ccc(F)cc3)nc2C1` [Example 520, 4-(2 2-Difluoroethoxy)-3-[2-(4-fluorophenyl)-2H 4H 5H 6H-pyrrolo[3,4-c]pyrazole-5-carbonyl]-2-methoxybenzonitrile], the IC50 is less than 100 nM.

In the case of `CCCC(C)Oc1ccc(C#N)c(OC)c1C(=O)N1Cc2cn(-c3ccc(F)cc3)nc2C1` (stereo not shown) [Example 521, 3-[2-(4-Fluorophenyl)-2H 4H 5H 6H-pyrrolo[3,4-c]pyrazole-5-carbonyl]-2-methoxy-4-(pentan-2-yloxy)benzonitrile], the IC50 is 100 to 1000 nM.

On to `COc1c(C#N)ccc(OCC(C)C)c1C(=O)N1Cc2cn(-c3ccc(F)cc3)nc2C1` [Example 522, 3-[2-(4-Fluorophenyl)-2H 4H 5H 6H-pyrrolo[3,4-c]pyrazole-5-carbonyl]-2-methoxy-4-(2-methylpropoxy)benzonitrile], for which the IC50 was less than 100 nM.

In the case of `COc1c(C#N)ccc(OC(C)C(C)C)c1C(=O)N1Cc2cn(-c3ccc(F)cc3)nc2C1` (stereo not shown) [Example 523, 3-[2-(4-Fluorophenyl)-2H 4H 5H 6H-pyrrolo[3,4-c]pyrazole-5-carbonyl]-2-methoxy-4-[(3-methylbutan-2-yl)oxy]benzonitrile], the IC50 is less than 100 nM.

For `COc1c(C#N)ccc(OC(C)C2CC2)c1C(=O)N1Cc2cn(-c3ccc(F)cc3)nc2C1` (stereo not shown) [Example 524, 4-(1-Cyclopropylethoxy)-3-[2-(4-fluorophenyl)-2H 4H 5H 6H-pyrrolo[3,4-c]pyrazole-5-carbonyl]-2-methoxybenzonitrile], the IC50 was less than 100 nM.

`COc1c(C#N)ccc(OC2(C)CC2)c1C(=O)N1Cc2cn(-c3ccc(F)cc3)nc2C1` [Example 525, 3-[2-(4-Fluorophenyl)-2H 4H 5H 6H-pyrrolo[3,4-c]pyrazole-5-carbonyl]-2-methoxy-4-(1-methylcyclopropoxy)benzonitrile]: the IC50 is less than 100 nM.

For `CC(C)(C)COc1ccc(C#N)cc1C(=O)N1Cc2cn(-c3ccc(F)cc3)nc2C1` [Example 526, 4-(2 2-Dimethylpropoxy)-3-[2-(4-fluorophenyl)-2H 4H 5H 6H-pyrrolo[3,4-c]pyrazole-5-carbonyl]benzonitrile], the IC50 was less than 100 nM.

As for `N#Cc1ccc(OCC(F)F)c(C(=O)N2Cc3cn(-c4ccc(F)cc4)nc3C2)c1` [Example 527, 4-(2 2-Difluoroethoxy)-3-[2-(4-fluorophenyl)-2H 4H 5H 6H-pyrrolo[3,4-c]pyrazole-5-carbonyl]benzonitrile], the IC50 was 1000 to 10000 nM.

Turning to `N#Cc1ccc(OCC(F)(F)F)c(C(=O)N2Cc3cn(-c4ccc(F)cc4)nc3C2)c1` [Example 528, 3-[2-(4-Fluorophenyl)-2H 4H 5H 6H-pyrrolo[3,4-c]pyrazole-5-carbonyl]-4-(2 2 2-trifluoroethoxy)benzonitrile], the IC50 was 100 to 1000 nM.

For the molecule `CC(C)Oc1ccc(C#N)cc1C(=O)N1Cc2cn(-c3ccc(F)cc3)nc2C1` [Example 529, 3-[2-(4-Fluorophenyl)-2H 4H 5H 6H-pyrrolo[3,4-c]pyrazole-5-carbonyl]-4-(propan-2-yloxy)benzonitrile], the IC50 was 100 to 1000 nM.

On to `C[C@H](Oc1ccc(C#N)cc1C(=O)N1Cc2cn(-c3ccc(F)cc3)nc2C1)C(F)(F)F` [Example 530, 3-[2-(4-Fluorophenyl)-2H 4H 5H 6H-pyrrolo[3,4-c]pyrazole-5-carbonyl]-4-{[(2S)-1 1 1-trifluoropropan-2-yl]oxy}benzonitrile], for which the IC50 is 100 to 1000 nM.

`N#Cc1ccc(OCC2CC2)c(C(=O)N2Cc3cn(-c4ccc(F)cc4)nc3C2)c1` [Example 531, 4-(Cyclopropylmethoxy)-3-[2-(4-fluorophenyl)-2H 4H 5H 6H-pyrrolo[3,4-c]pyrazole-5-carbonyl]benzonitrile]: the IC50 was 100 to 1000 nM.

As for `CC(C)(Oc1ccc(C#N)cc1C(=O)N1Cc2cn(-c3ccc(F)cc3)nc2C1)C(F)(F)F` [Example 532, 3-[2-(4-Fluorophenyl)-2H 4H 5H 6H-pyrrolo[3,4-c]pyrazole-5-carbonyl]-4-[(1 1 1-trifluoro-2-methylpropan-2-yl)oxy]benzonitrile], the IC50 is 100 to 1000 nM.

For the molecule `COc1c(C#N)ccc(OCC(F)(F)F)c1C(=O)N1Cc2cn(-c3ccc(F)c(C)n3)nc2C1` [Example 533, 3-[2-(5-Fluoro-6-methylpyridin-2-yl)-2H 4H 5H 6H-pyrrolo[3,4-c]pyrazole-5-carbonyl]-2-methoxy-4-(2 2 2-trifluoroethoxy)benzonitrile], the IC50 is less than 100 nM.

For `COc1c(C#N)ccc(OCC(F)F)c1C(=O)N1Cc2cn(-c3ccc(F)c(C)n3)nc2C1` [Example 534, 4-(2 2-Difluoroethoxy)-3-[2-(5-fluoro-6-methylpyridin-2-yl)-2H 4H 5H 6H-pyrrolo[3,4-c]pyrazole-5-carbonyl]-2-methoxybenzonitrile], the IC50 was 100 to 1000 nM.
